From patent publication US20230227426A1 (Akebia Therapeutics, Inc., priority 2020, published 2023)

Experiments:
Type in all cases: biochemical
[1] = target: T1, full-length human PHD1 (Homo sapiens, UniProt Q96KS0); test: TR-FRET assay for PHD enzymes, PHD1
T1 construct: FLAG (N); purchased Active Motif (Carlsbad, Calif., USA) 81064; host or cells: baculovirus expression system
Text: (§1) The resulting proximity of the donor fluorophore complex, monoclonal antibody anti-6His-Terbium (Tb)-cryptate Gold, bound to the His-tagged VHL protein, EloB, EloC complex (His-VBC) and the acceptor fluorophore, SA-D2 complex, bound to HIF-1α-hydroxyproline results in a fluorescence resonance energy transfer signal that can be detected and quantified
Recombinant human PHD1 protein (catalog #81064, Lot #24717001) was purchased from Active Motif (Carlsbad, Calif., USA). PHD1 was expressed in a baculovirus expression system as the full-length protein (NCBI accession number NP_542770.2) with an N-terminal FLAG tag (molecular weight 44.9 kDa). Purity (>90%) was assessed by SDS-PAGE.
(§2) For this, 5 μL PHD inhibitor compound was serially diluted with dilution buffer (50 mM HEPES [4-(2-hydroxyethyl)-1-piperazineethanesulfonic acid] pH 7.5, 50 mM sodium chloride [NaCl], 0.01% Tween-20, 0.01% purified bovine serum albumin [BSA]) and mixed with 5 μL PHD enzyme mix prepared as a 4× concentrate in the dilution buffer containing PHD enzyme (60 nM PHD1, 20 nM PHD2, 140 nM PHD3), 40 μM ferrous ammonium sulfate (FAS), 4 mM sodium (Na) ascorbate.
(§3) The IC50 values (mean, standard deviation, standard error of the mean, geometric mean and 95% confidence interval) were determined using a four-parameter curve-fit using GraphPad Prism 7.0 (GraphPad, La Jolla, Calif., USA) and represent the compound concentration plotted against the calculated ratio of 665 nm and 615 nm.

[2] = target: T2, full-length human PHD2 (Homo sapiens, UniProt Q9GZT9); test: TR-FRET assay for PHD enzymes, PHD2; conditions: read-out: PHD2 IC5 0
T2 construct: The PHD2 construct contained amino acids 1 to 426 of PHD2; His tag (N, cleaved yes); TEV protease cleavage site (N, cleaved yes); host or cells: Sf9 insect cells (baculovirus)
Method: as §1, §2, §3

[3] = target: T3, full-length human PHD3 (Homo sapiens, UniProt Q9H6Z9); test: TR-FRET assay for PHD enzymes, PHD3
T3 construct: 6-His (N); purchased Active Motif (Carlsbad, Calif., USA) 81033; host or cells: E. coli
Text: as §1
Recombinant human PHD3 protein (molecular weight 31.1 kDa) was purchased from Active Motif (Carlsbad, Calif., USA). It was expressed in E. coli as the full-length protein (NCBI accession number NP_071356.1) with an N-terminal 6-His tag (catalog #81033, Lot #24417001).
as §2, §3

T3 sequence (Q9H6Z9 whole entry): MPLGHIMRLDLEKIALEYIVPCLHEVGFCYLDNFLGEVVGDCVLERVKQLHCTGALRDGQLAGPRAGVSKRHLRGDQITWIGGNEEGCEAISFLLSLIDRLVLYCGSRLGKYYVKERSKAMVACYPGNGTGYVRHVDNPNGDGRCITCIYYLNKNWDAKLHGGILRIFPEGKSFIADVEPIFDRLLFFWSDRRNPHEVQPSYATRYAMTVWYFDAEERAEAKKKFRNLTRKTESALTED
T1 sequence (Q96KS0 whole entry): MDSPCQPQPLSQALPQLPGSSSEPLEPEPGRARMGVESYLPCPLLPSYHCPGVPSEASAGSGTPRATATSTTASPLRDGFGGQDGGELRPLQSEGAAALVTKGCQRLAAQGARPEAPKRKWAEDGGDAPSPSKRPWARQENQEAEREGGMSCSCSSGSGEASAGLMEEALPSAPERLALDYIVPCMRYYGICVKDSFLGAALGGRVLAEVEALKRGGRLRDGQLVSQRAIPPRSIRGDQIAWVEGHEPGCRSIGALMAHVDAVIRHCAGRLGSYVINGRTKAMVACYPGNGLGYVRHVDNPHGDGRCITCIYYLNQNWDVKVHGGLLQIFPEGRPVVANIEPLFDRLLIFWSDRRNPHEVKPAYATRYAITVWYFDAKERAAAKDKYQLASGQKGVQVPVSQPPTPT
T2 sequence (Q9GZT9 whole entry, the tested form may be a part): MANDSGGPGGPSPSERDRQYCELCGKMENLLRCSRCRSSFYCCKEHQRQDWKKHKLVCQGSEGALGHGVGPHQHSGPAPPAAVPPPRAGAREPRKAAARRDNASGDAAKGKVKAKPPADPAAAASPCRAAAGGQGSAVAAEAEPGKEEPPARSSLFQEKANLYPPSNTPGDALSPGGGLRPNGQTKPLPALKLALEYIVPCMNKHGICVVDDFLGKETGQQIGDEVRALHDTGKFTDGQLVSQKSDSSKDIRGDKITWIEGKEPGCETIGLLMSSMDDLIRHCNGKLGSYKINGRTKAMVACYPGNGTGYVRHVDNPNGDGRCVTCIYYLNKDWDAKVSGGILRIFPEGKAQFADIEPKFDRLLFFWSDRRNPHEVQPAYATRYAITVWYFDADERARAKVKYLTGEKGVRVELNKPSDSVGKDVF

Structure (SMILES)	IC50 [1]	IC50 [2]	IC50 [3]
Cc1nn(-c2ccc(C(=O)O)cn2)c(O)c1-c1ccc(C#N)cc1 [Compound 9, 6-(4-(4-Cyanophenyl)-5-hydroxy-3-methyl-1H-pyrazol-1-yl)nicotinic acid]	< 100 nM	< 100 nM	< 100 nM
N#Cc1ccc(-c2cnn(-c3ccc(C(=O)O)cn3)c2O)cc1F [Compound 13, 6-(4-(4-cyano-3-fluorophenyl)-5-hydroxy-1H-pyrazol-1-yl)nicotinic acid]	< 100 nM	< 100 nM	< 100 nM
CC(C)(C)OC(=O)c1ccc(-n2ncc(-c3ccc(C#N)cc3)c2O)nc1 [Compound 38, Tert-butyl 6-(4-(4-cyanophenyl)-5-hydroxy-1H-pyrazol-1-yl)nicotinate]	< 100 nM	< 100 nM	1000 to 10000 nM
Cc1cc(-n2nc(C)c(-c3ccc(C#N)cc3)c2O)ncc1C(=O)O [Compound 18, 6-(4-(4-cyanophenyl)-5-hydroxy-3-methyl-1H-pyrazol-1-yl)-4-methylnicotinic acid]	< 100 nM	< 100 nM	< 100 nM
O=C(O)c1ccc(-n2ncc(-c3ccc(Cl)cc3O)c2O)nc1 [Compound 39, 6-(4-(4-chloro-2-hydroxyphenyl)-5-hydroxy-1H-pyrazol-1-yl)nicotinic acid]	100 to 1000 nM	< 100 nM	1000 to 10000 nM
COC(=O)c1ccc(-n2nc(C)c(-c3ccc(C#N)cc3)c2O)nc1 [Compound 11, Methyl 6-(4-(4-cyanophenyl)-5-hydroxy-3-methyl-1H-pyrazol-1-yl)nicotinate]	< 100 nM	< 100 nM	100 to 1000 nM
Cc1nn(-c2ccc(C(=O)O)cn2)c(O)c1-c1ccc(Cl)cc1F [Compound 28, 6-(4-(4-chloro-2-fluorophenyl)-5-hydroxy-3-methyl-1H-pyrazol-1-yl)nicotinic acid]	< 100 nM	100 to 1000 nM	100 to 1000 nM
COc1cc(-c2cnn(-c3ccc(C(=O)OC(C)(C)C)cn3)c2O)ccn1 [Compound 35, Tert-butyl 6-(5-hydroxy-4-(2-methoxypyridin-4-yl)-1H-pyrazol-1-yl)nicotinate]	< 100 nM	< 100 nM	< 100 nM
Cc1cc(-c2cnn(-c3ccc(C(=O)O)cn3)c2O)ccc1O [Compound 16, 6-(5-hydroxy-4-(4-hydroxy-3-methylphenyl)-1H-pyrazol-1-yl)nicotinic acid]	100 to 1000 nM	100 to 1000 nM	1000 to 10000 nM
N#Cc1cc(F)c(-c2cnn(-c3ccc(C(=O)O)cn3)c2O)cc1F [Compound 12, 6-(4-(4-Cyano-2,5-difluorophenyl)-5-hydroxy-1H-pyrazol-1-yl)nicotinic acid]	< 100 nM	< 100 nM	100 to 1000 nM
Cc1cc(C#N)ccc1-c1c(C)nn(-c2ccc(C(=O)O)cn2)c1O [Compound 24, 6-(4-(4-cyano-2-methylphenyl)-5-hydroxy-3-methyl-1H-pyrazol-1-yl)nicotinic acid]	< 100 nM	< 100 nM	< 100 nM
